IC50 data for 18 compounds are collected here from US10414754B2, “Indolizine compounds, a process for their preparation and pharmaceutical compositions containing them” (LES LABORATOIRES SERVIER, priority 2013, dated 2019).

One test deals with T1, Bcl-2 protein (histag-Bcl-2, UniProtKB P10415) (Homo sapiens, UniProt P10415).
T1 construct: His tag
In words: Inhibition of Bcl-2 by the fluorescence polarisation technique. The class given is binding. The note with it: fluorescence polarisation, 2 hours incubation; read-out: IC50 (nM) Bcl-2 FP. The method, then:
The fluorescence polarisation tests were carried out on microplates (384 wells). The Bcl-2 protein, labelled (histag-Bcl-2 such that Bcl-2 corresponds to the UniProtKB® primary accession number: P10415), at a final concentration of 2.50×10^−8 M, is mixed with a fluorescent peptide (Fluorescein-[…]), at a final concentration of 1.00×10^−8M in a buffer solution (Hepes 10 mM, NaCl 150 mM, Tween20 0.05%, pH 7.4), in the presence or absence of increasing concentrations of test compounds. After incubation for 2 hours, the fluorescence polarisation is measured.

Test [1] has as its system RS4;11 leukaemia tumour line. In words: In vitro cytotoxicity (MTT) on RS4;11. Format: cell-based. The note with it: Homo sapiens; RS4;11 cells, 48 hours exposure. The procedure: The cytotoxicity studies were carried out on the RS4;11 leukaemia tumour line.
The cells are distributed onto microplates and exposed to the test compounds for 48 hours.
The cell viability is then quantified by a colorimetric assay, the Microculture Tetrazolium Assay (Cancer Res., 1987, 47, 939-942).

The structures appear in SMILES notation. Structures can show the parent of a compound that is named as a salt.

T1 sequence (P10415 whole entry): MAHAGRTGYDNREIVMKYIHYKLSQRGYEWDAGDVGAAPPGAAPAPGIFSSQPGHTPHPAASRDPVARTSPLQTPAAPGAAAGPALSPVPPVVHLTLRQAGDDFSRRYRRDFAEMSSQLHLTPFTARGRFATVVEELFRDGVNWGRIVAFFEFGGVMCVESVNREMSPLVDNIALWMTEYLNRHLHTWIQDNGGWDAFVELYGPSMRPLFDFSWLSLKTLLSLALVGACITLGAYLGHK

`C[C@@H]1Cc2ccccc2CN1C(=O)c1cc2c(cc1-c1cc(C(=O)N(c3ccc(O)cc3)c3ccc(CN4CCCC(F)(F)C4)cc3)c3ccccn13)OCO2` [Example 30, N-{4-[(3,3-Difluoropiperidin-1-yl)methyl]phenyl}-N-(4-hydroxyphenyl)-3-(6-{[(3R)-3-methyl-3,4-dihydroisoquinolin-2(1H)-yl]carbonyl}-1,3-benzodioxol-5-yl)indolizine-1-carboxamide hydrochloride]: the IC50 on Bcl-2 protein turned out to be 10.4 nM; in test [1] it was 52.3 nM.
On to `C[C@@H]1Cc2ccccc2CN1C(=O)c1cc2c(cc1-c1cc(C(=O)N(c3ccc(O)cc3)c3ccc4ncccc4c3)c3ccccn13)OCO2` [Example 31, N-(4-Hydroxyphenyl)-3-(6-{[(3R)-3-methyl-3,4-dihydroisoquinolin-2(1H)-yl]carbonyl}-1,3-benzodioxol-5-yl)-N-(quinolin-6-yl)indolizine-1-carboxamide hydrochloride], for which the IC50 is 5.4 nM at Bcl-2 protein and 13.7 nM in test [1].
In the case of `Cc1cc(N(C(=O)c2cc(-c3cc4c(cc3C(=O)N3Cc5ccccc5C[C@H]3C)OCO4)n3ccccc23)c2ccc(O)cc2)ccn1` [Example 32, N-(4-Hydroxyphenyl)-3-(6-{[(3R)-3-methyl-3,4-dihydroisoquinolin-2(1H)-yl]carbonyl}-1,3-benzodioxol-5-yl)-N-(2-methylpyridin-4-yl)indolizine-1-carboxamide hydrochloride], the half-maximal inhibitory concentration (IC50) at Bcl-2 protein was determined as 5 nM; in test [1], 32.7 nM.
Turning to `C[C@@H]1Cc2ccccc2CN1C(=O)c1cc2c(cc1-c1cc(C(=O)N(c3ccc(O)cc3)c3cnc4c(ccn4C)c3)c3ccccn13)OCO2` [Example 33, N-(4-Hydroxyphenyl)-3-(6-{[(3R)-3-methyl-3,4-dihydroisoquinolin-2(1H)-yl]carbonyl}-1,3-benzodioxol-5-yl)-N-(1-methyl-1H-pyrrolo[2,3-b]pyridin-5-yl)indolizine-1-carboxamide hydrochloride], the IC50 at Bcl-2 protein amounted to 4.6 nM; in test [1], 6.33 nM.
The matching figures for `C[C@@H]1Cc2ccccc2CN1C(=O)c1cc2c(cc1-c1cc(C(=O)N(c3ccc(O)cc3)c3cccnc3)c3ccccn13)OCO2` [Example 34, N-(4-Hydroxyphenyl)-3-(6-{[(3R)-3-methyl-3,4-dihydroisoquinolin-2(1H)-yl]carbonyl}-1,3-benzodioxol-5-yl)-N-(pyridin-3-yl)indolizine-1-carboxamide hydrochloride]: 5.6 nM and 27.3 nM.
For `C[C@@H]1Cc2ccccc2CN1C(=O)c1cc2c(cc1-c1cc(C(=O)N(c3ccc(O)cc3)c3ccc(CCN4CCCC(F)(F)C4)cc3)c3ccccn13)OCO2` [Example 35, N-{4-[2-(3,3-Difluoropiperidin-1-yl)ethyl]phenyl}-N-(4-hydroxyphenyl)-3-(6-{[(3R)-3-methyl-3,4-dihydroisoquinolin-2(1H)-yl]carbonyl}-1,3-benzodioxol-5-yl)indolizine-1-carboxamide hydrochloride] the same measures were 15.1 nM and 62.2 nM.
For `C[C@@H]1Cc2ccccc2CN1C(=O)c1cc2c(cc1-c1cc(C(=O)N(c3ccc(O)cc3)c3ccc(CCN4CCC(F)(F)C4)cc3)c3ccccn13)OCO2` [Example 36, N-{4-[2-(3,3-Difluoropyrrolidin-1-yl)ethyl]phenyl}-N-(4-hydroxyphenyl)-3-(6-{[(3R)-3-methyl-3,4-dihydroisoquinolin-2(1,H)-yl]carbonyl}-1,3-benzodioxol-5-yl)indolizine-1-carboxamide hydrochloride] the same measures were 12.6 nM and 49.7 nM.
In the case of `NCC[C@@H]1Cc2ccccc2CN1C(=O)c1cc2c(cc1-c1cc(C(=O)N(c3ccccc3)c3ccc(O)cc3)c3n1CCCC3)OCO2` [Example 37, 3-(6-{[(3S)-3-(2-Aminoethyl)-3,4-dihydroisoquinolin-2(1H)-yl]carbonyl}-1,3-benzodioxol-5-yl)-N-(4-hydroxyphenyl)-N-phenyl-5,6,7,8-tetrahydroindolizine-1-carboxamide hydrochloride], the results for the IC50 (at Bcl-2 protein; in test [1]) were 2.9 nM and 24.7 nM, respectively.
The matching figures for `O=C(c1cc(-c2cc3c(cc2C(=O)N2Cc4ccccc4C[C@H]2CCCN2CCOCC2)OCO3)n2c1CCCC2)N(c1ccccc1)c1ccc(O)cc1` [Example 38, N-(4-Hydroxyphenyl)-3-(6-{[(3R)-3-[3-(morpholin-4-yl)propyl]-3,4-dihydroisoquinolin-2(1H)-yl]carbonyl}-1,3-benzodioxol-5-yl)-N-phenyl-5,6,7,8-tetrahydroindolizine-1-carboxamide hydrochloride]: 4.6 nM and 9.52 nM.
The matching figures for `Cc1cc(N(C(=O)c2cc(-c3cc4c(cc3C(=O)N3Cc5ccccc5C[C@H]3C)OCO4)n3ccccc23)c2ccc(O)cc2)cc(C)n1` [Example 39, N-(2,6-Dimethylpyridin-4-yl)-N-(4-hydroxyphenyl)-3-(6-{[(3R)-3-methyl-3,4-dihydroisoquinolin-2(1H)-yl]carbonyl}-1,3-benzodioxol-5-yl)indolizine-1-carboxamide hydrochloride]: 4.6 nM and 26.3 nM.
For `C[C@@H]1Cc2ccccc2CN1C(=O)c1cc2c(cc1-c1cc(C(=O)N(c3ccccc3)c3ccc(O)cc3)c3n1CCCC3)OCO2` [Example 40, N-(4-Hydroxyphenyl)-3-(6-{[(3R)-3-methyl-3,4-dihydroisoquinolin-2(1H)-yl]carbonyl}-1,3-benzodioxol-5-yl)-N-phenyl-5,6,7,8-tetrahydroindolizine-1-carboxamide] the same measures were 6 nM and 49 nM.
In the case of `O=C(c1cc(-c2cc3c(cc2C(=O)N2Cc4ccccc4C[C@H]2CCN2CCCC(F)(F)C2)OCO3)n2c1CCCC2)N(c1ccccc1)c1ccc(O)cc1` [Example 41, 3-(6-{[(3S)-3-[2-(3,3-Difluoropiperidin-1-yl)ethyl]-3,4-dihydroiso-quinolin-2(1H)-yl]carbonyl}-1,3-benzodioxol-5-yl)-N-(4-hydroxyphenyl)-N-phenyl-5,6,7,8-tetrahydroindolizine-1-carboxamide hydrochloride], the IC50 on Bcl-2 protein amounted to 41.5 nM; in test [1] it was 294 nM.
For `C[C@@H]1Cc2ccccc2CN1C(=O)c1cc2c(cc1-c1cc(C(=O)N(c3ccncc3)c3ccc(O)cc3)c3n1CCCC3)OCO2` [Example 42, N-(4-Hydroxyphenyl)-3-(6-{[(3R)-3-methyl-3,4-dihydroisoquinolin-2(1H)-yl]carbonyl}-1,3-benzodioxol-5-yl)-N-(pyridin-4-yl)-5,6,7,8-tetrahydro-indolizine-1-carboxamide hydrochloride] the same measures were 5.1 nM and 57.6 nM.
On to `O=C(c1cc(-c2cc3c(cc2C(=O)N2Cc4ccccc4C[C@H]2CCNCC(F)F)OCO3)n2c1CCCC2)N(c1ccccc1)c1ccc(O)cc1` [Example 43, 3-(6-{[(3S)-3-{2-[(2,2-Difluoroethyl)amino]ethyl}-3,4-dihydroisoquinolin-2(1H)-yl]carbonyl}-1,3-benzodioxol-5-yl)-N-(4-hydroxyphenyl)-N-phenyl-5,6,7,8-tetrahydroindolizine-1-carboxamide], for which the IC50 on Bcl-2 protein came to 4.8 nM; in test [1], 26 nM.
For `COC1CN(CC[C@@H]2Cc3ccccc3CN2C(=O)c2cc3c(cc2-c2cc(C(=O)N(c4ccccc4)c4ccc(O)cc4)c4n2CCCC4)OCO3)C1` [Example 44, N-(4-Hydroxyphenyl)-3-(6-{[(3S)-3-[2-(3-methoxyazetidin-1-yl)ethyl]-3,4-dihydroisoquinolin-2(1H)-yl]carbonyl}-1,3-benzodioxol-5-yl)-N-phenyl-5,6,7,8-tetrahydroindolizine-1-carboxamide] the same measures were 2.9 nM and 8.56 nM.
Consider `C[C@@H]1Cc2ccccc2CN1C(=O)c1cc2c(cc1-c1cc(C(=O)N(c3ccc(O)cc3)c3cnn(CCN4CCOCC4)c3)c3ccccn13)OCO2` [Example 45, N-(4-Hydroxyphenyl)-3-(6-{[(3R)-3-methyl-3,4-dihydroisoquinolin-2(1,H)-yl]carbonyl}-1,3-benzodioxol-5-yl)-N-{1-[2-(morpholin-4-yl)ethyl]-1H-pyrazol-4-yl}indolizine-1-carboxamide hydrochloride], for which the IC50 came to 3.8 nM on Bcl-2 protein and 63.8 nM in test [1].
Turning to `C[C@@H]1Cc2ccccc2CN1C(=O)c1cc2c(cc1-c1cc(C(=O)N(c3ccc(O)cc3)c3ccncc3F)c3ccccn13)OCO2` [Example 46, N-(3-Fluoropyridin-4-yl)-N-(4-hydroxyphenyl)-3-(6-{[(3R)-3-methyl-3,4-dihydroisoquinolin-2(1H)-yl]carbonyl}-1,3-benzodioxol-5-yl)indolizine-1-carboxamide hydrochloride], the results for the IC50 (at Bcl-2 protein; in test [1]) were 4.1 nM and 27.9 nM, respectively.
`C[C@@H]1Cc2ccccc2CN1C(=O)c1ccc(Cl)cc1-c1cc(C(=O)N(c2ccc(O)cc2)c2cnn(C)c2)c2n1CCCC2` [Example 47, 3-(5-Chloro-2-{[(3R)-3-methyl-3,4-dihydroisoquinolin-2(1H)-yl]-carbonyl}phenyl)-N-(4-hydroxyphenyl)-N-(1-methyl-1H-pyrazol-4-yl)-5,6,7,8-tetrahydroindolizine-1-carboxamide]: the IC50 came out at 4.3 nM at Bcl-2 protein and 90.1 nM in test [1].

In general, IC50 refers to the concentration that gives 50% inhibition.
